# According to US7851410B2, “Herbicidal composition” (FMC Corporation, priority 2006, dated 2010):
# Tests used:
# Format in all cases: in vivo
# Spurge = test: Pre-emergent herbicidal evaluation on Spurge (field plots, granular fertilizer compositions)
# Method: Test compositions were prepared of i) a granular fertilizer and 2,4-dinitro-N^3,N^3-dipropyl-6-(trifluoromethyl)-1,3-benzenediamine, and ii) a granular fertilizer and N-[2,4-dichloro-5-[4-(difluoromethyl)-4,5-dihydro-3-methyl-5-oxo-1H-1,2,4-triazol-1-yl]phenyl]methanesulfonamide. The test compositions were prepared to provide the desired application rates of 2,4-dinitro-N^3,N^3-dipropyl-6-(trifluoromethyl)-1,3-benzenediamine and N-[2,4-dichloro-5-[4-(difluoromethyl)-4,5-dihydro-3-methyl-5-oxo-1H-1,2,4-triazol-1-yl]phenyl]methanesulfonamide. In addition, test compositions were prepared containing mixtures of 2,4-dinitro-N^3,N^3-dipropyl-6-(trifluoromethyl)-1,3-benzenediamine and N-[2,4-dichloro-5-[4-(difluoromethyl)-4,5-dihydro-3-methyl-5-oxo-1H-1,2,4-triazol-1-yl]phenyl]methanesulfonamide with granular fertilizer that provided the specified rates of the two herbicides.
# The experimental design used randomized plots with one pre-emergent treatment either the day of planting or the day after planting and three to four replications per test trial. The size of each experimental plot was 6 feet by 30 feet.
# Percent control of the weed (Spurge) was evaluated and averaged in each experimental plot at 70 days after treatment (DAT) of each test rate.
# (§1) The results, shown as an average of the replications, were compared with results observed in untreated control plots in the same trials.
# Goose Grass = test: Pre-emergent herbicidal evaluation on Goose Grass (field plots, spray)
# Method: (§2) Test compositions were prepared by dilution of a 65% water-soluble granule (65 WG) formulation of 2,4-dinitro-N^3,N^3-dipropyl-6-(trifluoromethyl)-1,3-benzenediamine in a spray tank that provided the appropriate application rate of 2,4-dinitro-N^3,N^3-dipropyl-6-(trifluoromethyl)-1,3-benzenediamine. Test compositions were also prepared by dilution of a 80% wettable powder (80 WP) formulation of N-[2,4-dichloro-5-[4-(difluoromethyl)-4,5-dihydro-3-methyl-5-oxo-1H-1,2,4-triazol-1-yl]phenyl]methanesulfonamide in a spray tank that provided the appropriate application rate of N-[2,4-dichloro-5-[4-(difluoromethyl)-4,5-dihydro-3-methyl-5-oxo-1H-1,2,4-triazol-1-yl]phenyl]methanesulfonamide. In addition, test compositions were prepared containing mixtures of a 65% water-soluble granule (65 WG) formulation of 2,4-dinitro-N^3,N^3-dipropyl-6-(trifluoromethyl)-1,3-benzenediamine and a 80% wettable powder (80 WP) formulation of N-[2,4-dichloro-5-[4-(difluoromethyl)-4,5-dihydro-3-methyl-5-oxo-1H-1,2,4-triazol-1-yl]phenyl]methanesulfonamide with water that provided the specified rates of the two herbicides.
# (§3) The application of each test composition was performed with pressurized back-pack sprayers, calibrated to spray between 10 and 15 gallons per acre.
# (§4) The experimental design used randomized plots with one pre-emergent treatment either the day of planting or the day after planting and four to eight replications per test trial. The size of each experimental plot was 6 feet by 30 feet.
# Percent control of the weed (Goose Grass) was evaluated and averaged in each experimental plot at 14 days after treatment (DAT) of each test rate.
# as §1
# Johnson Grass = test: Pre-emergent herbicidal evaluation on Johnson Grass (field plots, spray)
# Method: as §2, §3, §4
# Percent control of the weed (Johnson Grass) was evaluated and averaged in each experimental plot at 14 days after treatment (DAT) of each test rate.
# as §1
# Barnyard Grass = test: Pre-emergent herbicidal evaluation on Barnyard Grass (field plots, spray)
# Method: as §2, §3, §4
# Percent control of the weed (Barnyard Grass) was evaluated and averaged in each experimental plot at 14 days after treatment (DAT) of each test rate.
# as §1
# Annual Blue Grass = test: Pre-emergent herbicidal evaluation on Annual Blue Grass (field plots, spray)
# Method: as §2, §3, §4
# Percent control of the weed (Annual Blue Grass) was evaluated and averaged in each experimental plot at 14 days after treatment (DAT) of each test rate.
# as §1
# Green Foxtail = test: Pre-emergent herbicidal evaluation on Green Foxtail (field plots, spray)
# Method: as §2, §3, §4
# Percent control of the weed (Green Foxtail) was evaluated and averaged in each experimental plot at 14 days after treatment (DAT) of each test rate.
# as §1
smiles,measurement,setting,value
"Cc1nn(-c2cc(NS(C)(=O)=O)c(Cl)cc2Cl)c(=O)n1C(F)F [A, N-[2,4-dichloro-5-[4-(difluoromethyl)-4,5-dihydro-3-methyl-5-oxo-1H-1,2,4-triazol-1-yl]phenyl]methanesulfonamide]",Control @ 70 DAT,Spurge; 0.125 lb AI/Acre,0%
same,Control @ 70 DAT,Spurge; 0.250 lb AI/Acre,6%
same,Control @ 70 DAT,Spurge; 0.375 lb AI/Acre,6%
same,Control @ 14 DAT,Goose Grass; 0.06 lb AI/Acre,49%
same,Control @ 14 DAT,Goose Grass; 0.12 lb AI/Acre,69%
same,Control @ 14 DAT,Goose Grass; 0.19 lb AI/Acre,77%
same,Control @ 14 DAT,Goose Grass; 0.25 lb AI/Acre,79%
same,Control @ 14 DAT,Johnson Grass; 0.06 lb AI/Acre,42%
same,Control @ 14 DAT,Johnson Grass; 0.12 lb AI/Acre,67%
same,Control @ 14 DAT,Johnson Grass; 0.19 lb AI/Acre,65%
same,Control @ 14 DAT,Johnson Grass; 0.25 lb AI/Acre,70%
same,Control @ 14 DAT,Barnyard Grass; 0.06 lb AI/Acre,55%
same,Control @ 14 DAT,Barnyard Grass; 0.12 lb AI/Acre,80%
same,Control @ 14 DAT,Barnyard Grass; 0.19 lb AI/Acre,88%
same,Control @ 14 DAT,Barnyard Grass; 0.25 lb AI/Acre,93%
same,Control @ 14 DAT,Annual Blue Grass; 0.06 lb AI/Acre,37%
same,Control @ 14 DAT,Annual Blue Grass; 0.12 lb AI/Acre,47%
same,Control @ 14 DAT,Annual Blue Grass; 0.19 lb AI/Acre,62%
same,Control @ 14 DAT,Annual Blue Grass; 0.25 lb AI/Acre,60%
same,Control @ 14 DAT,Green Foxtail; 0.06 lb AI/Acre,62%
same,Control @ 14 DAT,Green Foxtail; 0.12 lb AI/Acre,76%
same,Control @ 14 DAT,Green Foxtail; 0.19 lb AI/Acre,93%
same,Control @ 14 DAT,Green Foxtail; 0.25 lb AI/Acre,97%
"CCCN(CCC)c1c([N+](=O)[O-])cc(C(F)(F)F)c(N)c1[N+](=O)[O-] [B, 2,4-dinitro-N^3,N^3-dipropyl-6-(trifluoromethyl)-1,3-benzenediamine]",Control @ 70 DAT,Spurge; 0.50 lb AI/Acre,42%
same,Control @ 70 DAT,Spurge; 0.75 lb AI/Acre,70%
same,Control @ 70 DAT,Spurge; 1.00 lb AI/Acre,60%
same,Control @ 14 DAT,Goose Grass; 0.12 lb AI/Acre,76%
same,Control @ 14 DAT,Goose Grass; 0.25 lb AI/Acre,99%
same,Control @ 14 DAT,Goose Grass; 0.50 lb AI/Acre,100%
same,Control @ 14 DAT,Johnson Grass; 0.12 lb AI/Acre,42%
same,Control @ 14 DAT,Johnson Grass; 0.25 lb AI/Acre,48%
same,Control @ 14 DAT,Johnson Grass; 0.50 lb AI/Acre,77%
same,Control @ 14 DAT,Barnyard Grass; 0.12 lb AI/Acre,63%
same,Control @ 14 DAT,Barnyard Grass; 0.25 lb AI/Acre,69%
same,Control @ 14 DAT,Barnyard Grass; 0.50 lb AI/Acre,86%
same,Control @ 14 DAT,Annual Blue Grass; 0.12 lb AI/Acre,45%
same,Control @ 14 DAT,Annual Blue Grass; 0.25 lb AI/Acre,38%
same,Control @ 14 DAT,Annual Blue Grass; 0.50 lb AI/Acre,58%
same,Control @ 14 DAT,Green Foxtail; 0.12 lb AI/Acre,87%
same,Control @ 14 DAT,Green Foxtail; 0.25 lb AI/Acre,91%
same,Control @ 14 DAT,Green Foxtail; 0.50 lb AI/Acre,95%
